Ends that are not written are not given here.
Legend:
[1] = target: T1, HLA-E on the surface of Raji cells (Homo sapiens, UniProt P13747); test: HLA-E stabilisation assay (flow-cytometry); format: cell-based; conditions: HLA-E*0101/0101 Raji cells transfected with peptide, HLA-E surface expression after 16h by flow-cytometry; three independent replicates; Figure 1E; read-out: HLA-E upregulation (EC50)
T1 construct: host or cells: Raji cells
Procedure: For the HLA-E stabilization experiments, HLA-E*0101/0101-encoding Raji cells (German Collection of Microorganisms and Cell Cultures) were maintained in 90% RPMI 1640 + 10% heat-inactivated FCS (Thermo-Fisher). The cells were individually transfected with indicated concentrations of the LMP-1 peptides (Peptides&Elephants) using the Pierce Protein Transfection Reagent according to the manufacturer’s instructions (Thermo-Fisher). After 16h, the cells were either fixed and analyzed for the HLA-E expression by flow-cytometry as described below, or washed once with Opti-MEM I Reduced Serum Medium (Gibco) and subsequently used in NKG2A^+ NK cell inhibition experiments.
The following conjugated mouse anti-human mAB were used for flow-cytometry: PE-CD19 (4G7), BV421-CD56 (NCAM 16.2), BV510-NKG2A (131411), PE-CD71 (M-A712) (all: BD Biosciences), AF647-NKG2C (134591, R&D Systems), APC-HLA/E (3D12) (Biolegend). Dead cells were identified using 7-AAD, LIVE/DEAD Fixable Green or Near-IR Dead Cell Stain Kit (both: Thermo-Scientific). Flow-cytometry analysis was performed on a FACSCanto2 platform and FACSDiva Version 10.7.2 (BD).
Figure 1 LMP-1-derived peptides are associated with the development of EBV^+ lymphomas and inhibit NKG2A^+ NK cells. (A–D) Distribution of LMP-1 variants in patients with (A) asymptomatic reactivations (N=96), (B) symptomatic reactivations (N=96), (C) EBV^+HL (N=25), (D) EBV^+nHL (N=38). Fractions represent the relative frequency of the LMP-1 peptide GGDPHLPTL, GSDPHLPTL, GGDPHLPPL, GGDPPLPTL, GCDPHLPTL, GIDPHLPTL, GAGPHLPTL, GGDTPLPTL, GDDPHLPTL, GGDPHVPTL and GTDPHLPTL variants. ^+ The frequency of the LMP-1 variants was compared to the asymptomatic cohort by the Chi^2 Test. (E, F) HLA-E stabilisation assay. (E) HLA-E stabilisation assay: Raji cells were incubated with indicated concentrations of the positive control (VMAPRTLFL) or the LMP-1 peptide-derived GGDPHLPTL, GSDPHLPTL, GGDPHLPPL, GGDPPLPTL, GCDPHLPTL, GIDPHLPTL, GAGPHLPTL, GGDTPLPTL, GDDPHLPTL, GGDPHVPTL and GTDPHLPTL variants. The HLA-E surface expression was then assessed after 16h of co-culture by flow-cytometry. Plots represent the mean ( ± SD) of three independent replicates. Each peptide was compared to the positive control using RM one-way ANOVA (with the Geisser-Greenhouse correction). (F) NKG2A^+NKG2C^- NK cell inhibition assay: Raji cells were incubated with indicated concentrations of the positive control (VMAPRTLFL) or the LMP-1 peptide-derived GGDPHLPTL, GSDPHLPTL, GGDPHLPPL, GGDPPLPTL, GCDPHLPTL, GIDPHLPTL, GAGPHLPTL, GGDTPLPTL, GDDPHLPTL, GGDPHVPTL and GTDPHLPTL variants and were then co-cultured with pre-activated NKG2A^+NKG2C^- NK cells from 12 blood donors. Plots represent the mean ( ± SD) of 12 independent replicates. Each peptide was compared to the positive control using RM one-way ANOVA (with the Geisser-Greenhouse correction). p < 0.05 was considered significant. *p < 0.05; **p < 0.01; ***p < 0.001. EBV^+HL, EBV^+ Hodgkin lymphoma, EBV^+nHL, EBV^+ non-Hodgkin lymphoma, Pos. Ctrl., positive control. TEXT PRINTED IN THE PICTURE: (E) Pos. Ctrl.: 81.4 μM | (E) GTDPHLPTL: 167.7 μM | (E) GGDPHLPTL: 162 μM | (E) GGDPPLPTL: 153.8 μM | (E) GIDPHLPTL: 313.9 μM | (E) GCDPHLPTL: 304.8 μM | (E) GDDPHLPTL: 370.3 μM | (E) GAGPHLPTL: 317.1μM | (E) GGDPHVPTL: 759 μM | (E) GSDPHLPTL: 613.9 μM | (E) GGDPHLPPL: 682 μM | (E) GGDTPLPTL: 1110 μM | (F) Pos. […] The y-axis titles are 'HLA-E upregulation' (E) and 'NKG2A+NKG2C- NK cell inhibition' (F). / Panels A–D: the percentages and counts (e.g. 44.8%, 43/96) are frequencies of peptide variants in patient cohorts, not results for a substance, and are left out.

[2] = test system: EBV-infected K562-CR2-HLA-E*0103/0103 cells; test: Cell proliferation assay, K562-CR2-HLA-E*0103/0103; format: cell-based, human; conditions: GGDPHLPTL-pulsed (300 µM) K562-CR2-HLA-E*0103/0103 with NKG2A+NKG2C- or NKG2A+NKG2C+ NK cells, Monalizumab 10 µg/mL; Figure 2H
Procedure: (§1) For the cell proliferation assays MHC-I-deficient K562-CR2, K562-CR2-HLA-E*0103/0103 or K562-CR2-HLA-E*0101/0101 target cells were established and maintained as described before ([16]). The cells were then always infected with the marmoset B-lymphoblastoid cell line B95-8 derived EBV-strain, which encodes for the GGDPHLPTL LMP-1 variant, (MOI=1) ([16]) for 3 days. Sorted NKG2C^-NKG2A^+, NKG2C^+NKG2A^- and NKG2C^+NKG2A^+ NK cells were used as effector cells and were quickly thawed at 37°C, washed, and pre-activated overnight in RPMI, 10% FCS, 1% L-glutamine, 10 ng/ml IL-12 and 100 ng/ml IL-18 at 37°C. The NK cells were then harvested by centrifugation at 400xg for 5 minutes and washed once with Opti-MEM. […] All cells were then harvested, fixed with the FIX & PERM Cell Fixation & Cell Permeabilization Kit (Thermo-Scientific) and analysed by flow-cytometry, as described below. […]
(§2) Figure 2 HLA-E variants are associated with the development of EBV^+ lymphomas and inhibit NKG2A^+ NK cells. […] (E) Enriched NKG2A^+NKG2C^- NK cells were co-cultured with EBV-infected K562-CR2, K562-CR2-HLA-E*0103/0103 or K562-CR2-HLA-E*0101/0101 cells and were subsequently analyzed by flow-cytometry. […] Viable EBV-infected K562-CR2-HLA-E*0103/0103 or K562-CR2-HLA-E*0101/0101 cells or enriched NKG2A^+NKG2C^- NK cells was subsequently analysed by flow-cytometry. […]

[3] = test system: EBV-infected K562-CR2-HLA-E*0101/0101 cells; test: Cell proliferation assay, K562-CR2-HLA-E*0101/0101; format: cell-based, human; conditions: GGDPHLPTL-pulsed (300 µM) K562-CR2-HLA-E*0101/0101 with NKG2A+NKG2C- or NKG2A+NKG2C+ NK cells, Monalizumab 10 µg/mL; Figure 2H
Procedure: as §1, §2

Molecule | EC50 [1] | EBV-infected K562-CR2 cell dissemination on blocking of NKG2A [2] | EBV-infected K562-CR2 cell dissemination on blocking of NKG2A [3]
GAGPHLPTL [GAGPHLPTL] | 317 µM |  | 
GCDPHLPTL [GCDPHLPTL] | 305 µM |  | 
GDDPHLPTL [GDDPHLPTL] | 370 µM |  | 
GGDPHLPPL [GGDPHLPPL] | 682 µM |  | 
GGDPHLPTL [GGDPHLPTL] | 162 µM |  | 
GGDPHVPTL [GGDPHVPTL] | 759 µM |  | 
GGDPPLPTL [GGDPPLPTL] | 154 µM |  | 
GGDTPLPTL [GGDTPLPTL] | 1110 µM |  | 
GIDPHLPTL [GIDPHLPTL] | 314 µM |  | 
GSDPHLPTL [GSDPHLPTL] | 614 µM |  | 
GTDPHLPTL [GTDPHLPTL] | 168 µM |  | 
Monalizumab: α-NKG2A blocking monoclonal antibody (Innate Pharma) (antibody, chains of the INN, looked up, V domains shown) VH: QVQLVQSGAEVKKPGASVKVSCKASGYTFTSYWMNWVRQAPGQGLEWMGRIDPYDSETHYAQKLQGRVTMTTDTSTSTAYMELRSLRSDDTAVYYCARGGYDFDVGTLYWFFDVWGQGTTVTVSS VL: DIQMTQSPSSLSASVGDRVTITCRASENIYSYLAWYQQKPGKAPKLLIYNAKTLAEGVPSRFSGSGSGTDFTLTISSLQPEDFATYYCQHHYGTPRTFGGGTKVEIK |  | reduction | reduction
